Test results from PubChem BioAssay (NCI).
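Cultured in 96-well plates, cells were exposed to test compound for 48 hours across five concentrations. TGI: total growth inhibition.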

Tests used:
Assay in all cases: inhibition of tumour cell growth, NCI panel, 48 h
NCI/ADR-RES ovarian = test system: NCI/ADR-RES ovarian
MDA-MB-435 = test system: MDA-MB-435
DU-145 prostate = test system: DU-145 prostate
OVCAR-5 ovarian = test system: OVCAR-5 ovarian
IGROV1 ovarian = test system: IGROV1 ovarian
SR leukemia = test system: SR leukemia
SF-295 CNS = test system: SF-295 CNS
MALME-3M melanoma = test system: MALME-3M melanoma
TK-10 renal = test system: TK-10 renal
786-0 renal = test system: 786-0 renal
COLO 205 colon = test system: COLO 205 colon
MDA-MB-231 breast = test system: MDA-MB-231 breast
SF-268 CNS = test system: SF-268 CNS
KM12 colon = test system: KM12 colon
CCRF-CEM leukemia = test system: CCRF-CEM leukemia
M14 melanoma = test system: M14 melanoma
LOX IMVI melanoma = test system: LOX IMVI melanoma
MDA-N = test system: MDA-N
SNB-75 CNS = test system: SNB-75 CNS
MOLT-4 leukemia = test system: MOLT-4 leukemia
SW-620 colon = test system: SW-620 colon
UACC-62 melanoma = test system: UACC-62 melanoma
SN12C renal = test system: SN12C renal
SK-OV-3 ovarian = test system: SK-OV-3 ovarian
SK-MEL-5 melanoma = test system: SK-MEL-5 melanoma
ACHN renal = test system: ACHN renal
OVCAR-8 ovarian = test system: OVCAR-8 ovarian
UO-31 renal = test system: UO-31 renal
HT29 colon = test system: HT29 colon
HOP-62 NSCLC = test system: HOP-62 NSCLC
K-562 leukemia = test system: K-562 leukemia
RPMI-8226 leukemia = test system: RPMI-8226 leukemia
NCI-H226 lung = test system: NCI-H226 lung
EKVX NSCLC = test system: EKVX NSCLC
HCT-15 colon = test system: HCT-15 colon
OVCAR-4 ovarian = test system: OVCAR-4 ovarian
NCI-H23 lung = test system: NCI-H23 lung
PC-3 prostate = test system: PC-3 prostate
HS 578T breast = test system: HS 578T breast
A549 NSCLC = test system: A549 NSCLC
OVCAR-3 ovarian = test system: OVCAR-3 ovarian
MCF7 breast = test system: MCF7 breast
A498 renal = test system: A498 renal
SK-MEL-28 melanoma = test system: SK-MEL-28 melanoma
U251 CNS = test system: U251 CNS
SNB-19 CNS = test system: SNB-19 CNS
HCT-116 colon = test system: HCT-116 colon
SK-MEL-2 melanoma = test system: SK-MEL-2 melanoma
UACC-257 melanoma = test system: UACC-257 melanoma
HL-60(TB) leukemia = test system: HL-60(TB) leukemia
CAKI-1 renal = test system: CAKI-1 renal
BT-549 breast = test system: BT-549 breast
NCI-H522 lung = test system: NCI-H522 lung
HCC-2998 colon = test system: HCC-2998 colon
NCI-H460 lung = test system: NCI-H460 lung
SF-539 CNS = test system: SF-539 CNS
HOP-92 NSCLC = test system: HOP-92 NSCLC
RXF 393 renal = test system: RXF 393 renal
T-47D breast = test system: T-47D breast

Measured: TGI

COc1ccc2c(C)cc(=O)oc2c1OC
not listed: HL-60(TB) leukemia | CAKI-1 renal | BT-549 breast | NCI-H522 lung | HCC-2998 colon | NCI-H460 lung | SF-539 CNS | HOP-92 NSCLC | RXF 393 renal | T-47D breast
> 100 µM: all other assays above

COc1cc(C2c3cc4c(cc3OC(C)(O)C2C)OCO4)cc(OC)c1OC (configuration not stated)
76.2 µM: IGROV1 ovarian
2.36 µM: SK-MEL-5 melanoma
57.6 µM: KM12 colon
11.9 µM: K-562 leukemia
0.888 µM: SF-539 CNS
1.19 µM: NCI-H522 lung
24 µM: MDA-MB-231 breast
14.2 µM: SR leukemia
13.5 µM: NCI-H226 lung
75.2 µM: HCT-116 colon
0.721 µM: RPMI-8226 leukemia
0.53 µM: HL-60(TB) leukemia
16.6 µM: CCRF-CEM leukemia
0.258 µM: MDA-N
81.5 µM: UO-31 renal
25.9 µM: MOLT-4 leukemia
0.761 µM: A549 NSCLC
not listed: SF-295 CNS | TK-10 renal | M14 melanoma | SNB-75 CNS | UACC-62 melanoma | SK-OV-3 ovarian | OVCAR-4 ovarian | SK-MEL-28 melanoma | SK-MEL-2 melanoma | HOP-92 NSCLC | RXF 393 renal | T-47D breast
> 100 µM: all other assays above

O=c1[nH]c(Nc2nc3ccccc3[nH]2)nc(O)c1-c1ccccc1
not listed: KM12 colon | MOLT-4 leukemia | RPMI-8226 leukemia | EKVX NSCLC | HL-60(TB) leukemia | T-47D breast
> 100 µM: all other assays above

O=[N+]([O-])C(/C=C(\Cl)n1nnc2ccccc21)=C(/Cl)n1nnc2ccccc21
not listed: SNB-75 CNS | SW-620 colon | OVCAR-8 ovarian | MCF7 breast | HL-60(TB) leukemia | BT-549 breast
> 100 µM: all other assays above
